Where two headings read alike, the source gives them in different places.
Legend:
Format in all cases: biochemical
human Yes1 enzyme = target: T1, human Yes1 enzyme (Homo sapiens, UniProt P07947); assay: Yes1 enzyme inhibitory activity (time-resolved fluorometry, biotinylated peptide phosphorylation); conditions: read-out: YES_IC50
T1 construct: made in house
How it was run: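 Inhibition was expressed against a compound-free control to give IC50, using TR-FRET read-out (Eu-cryptate anti-pTyr antibody, streptavidin-XL665).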

human Src enzyme = target: T2, human Src enzyme (Homo sapiens, UniProt P12931); assay: Src enzyme inhibitory activity (time-resolved fluorometry, biotinylated peptide phosphorylation); conditions: read-out: SRC_IC50
T2 construct: purchased Carna Biosciences, Inc. 08-173
How it was run: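 Compounds were tested for blocking tyrosine phosphorylation of a biotinylated peptide substrate by recombinant human Src. Phosphorylated product was quantified by time-resolved fluorometry using europium cryptate and XL665 conjugates, and IC50 was calculated against the compound-free control.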

human Lck enzyme = target: T3, human Lck enzyme (Homo sapiens, UniProt P06239); assay: Lck enzyme inhibitory activity (time-resolved fluorometry, biotinylated peptide phosphorylation); conditions: read-out: LCK_IC50
T3 construct: purchased Carna Biosciences, Inc. 08-170
How it was run: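 Readout pairs a europium cryptate-labelled anti-phosphotyrosine antibody with XL665-streptavidin, measured by time-resolved fluorescence. IC50 derived from percent inhibition against untreated controls.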

[1] = biotinylated peptide phosphorylation

T2 sequence (P12931 whole entry): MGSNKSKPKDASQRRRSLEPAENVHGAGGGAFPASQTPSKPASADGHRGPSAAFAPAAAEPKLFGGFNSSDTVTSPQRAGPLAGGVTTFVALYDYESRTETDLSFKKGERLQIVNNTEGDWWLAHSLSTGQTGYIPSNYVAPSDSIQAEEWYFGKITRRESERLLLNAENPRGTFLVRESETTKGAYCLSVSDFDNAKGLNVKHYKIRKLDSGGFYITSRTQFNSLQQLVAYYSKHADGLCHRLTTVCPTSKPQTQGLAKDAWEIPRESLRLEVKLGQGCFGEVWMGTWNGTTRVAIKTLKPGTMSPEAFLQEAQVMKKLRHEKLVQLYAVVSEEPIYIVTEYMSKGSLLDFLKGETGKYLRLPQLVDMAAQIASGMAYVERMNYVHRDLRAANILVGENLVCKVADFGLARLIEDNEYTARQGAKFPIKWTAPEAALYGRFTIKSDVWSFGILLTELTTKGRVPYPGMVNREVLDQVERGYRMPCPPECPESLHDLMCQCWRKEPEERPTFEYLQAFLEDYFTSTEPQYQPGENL
T3 sequence (P06239 whole entry): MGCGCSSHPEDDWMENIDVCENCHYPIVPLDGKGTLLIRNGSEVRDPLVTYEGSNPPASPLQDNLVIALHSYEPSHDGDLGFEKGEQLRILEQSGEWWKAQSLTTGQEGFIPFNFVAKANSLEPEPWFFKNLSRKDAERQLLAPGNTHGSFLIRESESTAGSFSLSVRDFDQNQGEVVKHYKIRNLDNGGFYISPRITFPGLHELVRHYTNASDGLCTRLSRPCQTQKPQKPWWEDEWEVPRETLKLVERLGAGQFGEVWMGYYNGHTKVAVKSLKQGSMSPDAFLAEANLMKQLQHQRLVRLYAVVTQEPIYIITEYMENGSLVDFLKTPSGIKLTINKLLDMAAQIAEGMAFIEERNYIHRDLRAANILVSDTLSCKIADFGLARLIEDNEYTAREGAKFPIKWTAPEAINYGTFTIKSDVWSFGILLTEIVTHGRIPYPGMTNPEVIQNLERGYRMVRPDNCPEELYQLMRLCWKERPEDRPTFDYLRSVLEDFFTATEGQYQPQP
T1 sequence (P07947 whole entry): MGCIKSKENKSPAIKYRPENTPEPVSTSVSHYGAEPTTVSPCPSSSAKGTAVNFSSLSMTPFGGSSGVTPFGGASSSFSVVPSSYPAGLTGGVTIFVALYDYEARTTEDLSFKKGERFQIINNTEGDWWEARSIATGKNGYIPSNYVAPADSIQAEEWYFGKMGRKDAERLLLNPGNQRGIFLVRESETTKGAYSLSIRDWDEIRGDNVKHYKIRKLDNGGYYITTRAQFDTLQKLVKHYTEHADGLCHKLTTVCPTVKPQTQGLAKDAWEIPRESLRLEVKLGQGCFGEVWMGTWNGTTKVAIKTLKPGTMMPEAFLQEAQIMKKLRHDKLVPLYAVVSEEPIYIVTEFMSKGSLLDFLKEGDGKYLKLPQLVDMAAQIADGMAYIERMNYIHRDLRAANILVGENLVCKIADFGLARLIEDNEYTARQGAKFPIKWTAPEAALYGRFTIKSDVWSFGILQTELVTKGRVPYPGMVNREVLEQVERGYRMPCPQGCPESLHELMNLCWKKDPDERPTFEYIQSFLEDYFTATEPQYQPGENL

| SMILES | IC50 (human Yes1 enzyme; [1]) | IC50 (human Src enzyme; [1]) | IC50 (human Lck enzyme; [1]) | IC50 (human Yes1 enzyme) | IC50 (human Src enzyme) | IC50 (human Lck enzyme) |
| --- | --- | --- | --- | --- | --- | --- |
| Cc1cc(Oc2c(F)cccc2F)ncc1-n1ncc(C(=O)c2cc3cc(F)c(N4CC5(CCOCC5)NS4(=O)=O)cc3[nH]2)c1N [Example 5-1-400, [5-amino-1-[6-(2,6-difluorophenoxy)-4-methylpyridin-3-yl]pyrazol-4-yl]-[6-(2,2-dioxo-8-oxa-2λ6-thia-13-diazaspiro[4.5]decan-3-yl)-5-fluoro-1H-indol-2-yl]methanone] | 2.1 nM | 76 nM | 14 nM | – | – | – |
| Cc1cc(Oc2ccccc2F)ncc1-n1ncc(C(=O)c2cc3cc(F)c(NS(=O)(=O)C4CCOCC4)cc3[nH]2)c1N [Example 5-1-378, N-[2-[5-amino-1-[6-(2-fluorophenoxy)-4-methylpyridin-3-yl]pyrazole-4-carbonyl]-5-fluoro-1H-indol-6-yl]oxane-4-sulfonamide] | – | – | – | 2.8 nM | 63 nM | 37 nM |
| Cc1cc(Oc2ccccc2F)ccc1-n1ncc(C(=O)c2cc3cc(OCC(F)F)c(N4C(=O)[C@@H]5C[C@@H](O)CN5C4=O)cc3[nH]2)c1N [Example 5-1-250] | – | – | – | 0.76 nM | 7.5 nM | 2.8 nM |
| Cc1cc(Oc2ccccc2F)ccc1-n1ncc(C(=O)c2cc3cc(OCC(F)F)c(NC4CN(S(C)(=O)=O)C4)cc3[nH]2)c1N [Example 4-23-018, [5-amino-1-[4-(2-fluorophenoxy)-2-methylphenyl]pyrazol-4-yl]-[5-(2,2-difluoroethoxy)-6-[(1-methylsulfonylazetidin-3-yl)amino]-1H-indol-2-yl]methanone] | 1.4 nM | 18 nM | 6.5 nM | – | – | – |
| Cc1cc(Oc2ccccc2F)ccc1-n1ncc(C(=O)c2cc3cc(F)c(N4C(=O)NC(C)(C(F)(F)F)C4=O)cc3[nH]2)c1N (stereo not drawn) [Example 5-1-412, 3-[2-[5-amino-1-[4-(2-fluorophenoxy)-2-methylphenyl]pyrazole-4-carbonyl]-5-fluoro-1H-indol-6-yl]-5-methyl-5-(trifluoromethyl) imidazolidine-2,4-dione] | 3 nM | 100 nM | 17 nM | – | – | – |
| Cc1cc2cc(C(=O)c3cnn(-c4cnc(Oc5c(F)cccc5F)cc4C)c3N)[nH]c2cc1N1C(=O)N[C@@H](C)C1=O [Example 5-1-443, (5S)-3-[2-[5-amino-1-[6-(2,6-difluorophenoxy)-4-methylpyridin-3-yl]pyrazole-4-carbonyl]-5-methyl-1H-indol-6-yl]-5-methylimidazolidine-2,4-dione] | 1.4 nM | 25 nM | 4.9 nM | – | – | – |
| Cc1cc2cc(C(=O)c3cnn(-c4cnc(Oc5ccccc5F)cc4C)c3N)[nH]c2cc1NS(=O)(=O)c1cccc(C(F)(F)F)n1 [Example 5-1-486, N-[2-[5-amino-1-[6-(2-fluorophenoxy)-4-methylpyridin-3-yl]pyrazole-4-carbonyl]-5-methyl-1H-indol-6-yl]-6-(trifluoromethyl) pyridine-2-sulfonamide] | 7.3 nM | 620 nM | 160 nM | – | – | – |
| Cc1cc(Oc2ccccc2F)ccc1-n1ncc(C(=O)c2cc3cc(OCC(F)F)c(N4C(=O)NC5(CCN(Cc6ccccc6)CC5)C4=O)cc3[nH]2)c1N [Example 5-1-277, 3-[2-[5-amino-1-[4-(2-fluorophenoxy)-2-methylphenyl]pyrazole-4-carbonyl]-5-(2,2-difluoroethoxy)-1H-indol-6-yl]-8-benzyl-1,3,8-triazaspiro[4.5]decane-2,4-dione] | – | – | – | 1.5 nM | 39 nM | 12 nM |
| Cc1cc(Oc2ccccc2F)ncc1-n1ncc(C(=O)c2cc3cc(OC(F)F)c(NS(=O)(=O)C4CC4)cc3[nH]2)c1N [Example 4-24-007, N-[2-[5-amino-1-[6-(2-fluorophenoxy)-4-methylpyridin-3-yl]pyrazole-4-carbonyl]-5-(difluoromethoxy)-1H-indol-6-yl]cyclopropanesulfonamide] | 4 nM | 230 nM | 61 nM | – | – | – |
| Cc1cc(Oc2ccccc2F)cc(F)c1-n1ncc(C(=O)c2cc3cc(OC(F)F)c(NC4CCN(S(C)(=O)=O)CC4)cc3[nH]2)c1N [Example 4-23-012, [5-amino-1-[2-fluoro-4-(2-fluorophenoxy)-6-methylphenyl]pyrazol-4-yl]-[5-(difluoromethoxy)-6-[(1-methylsulfonylpiperidin-4-yl)amino]-1H-indol-2-yl]methanone] | 14 nM | 70 nM | 31 nM | – | – | – |
| Cc1cc(Oc2ccccc2F)ccc1-n1ncc(C(=O)c2cc3cc(OC(F)F)c(N4C(=O)C(C)(C)NC4=S)cc3[nH]2)c1N [Example 4-23-039, 3-[2-[5-amino-1-[4-(2-fluorophenoxy)-2-methylphenyl]pyrazole-4-carbonyl]-5-(difluoromethoxy)-1H-indol-6-yl]-5,5-dimethyl-2-sulfanylideneimidazolidin-4-one] | 0.81 nM | 60 nM | 16 nM | – | – | – |
| Cc1cc(Oc2ccccc2F)ccc1-n1ncc(C(=O)c2cc3cc(OCC(F)F)c(NS(=O)(=O)CCC(F)F)cc3[nH]2)c1N [Example 4-24-023, N-[2-[5-amino-1-[4-(2-fluorophenoxy)-2-methylphenyl]pyrazole-4-carbonyl]-5-(2,2-difluoroethoxy)-1H-indol-6-yl]-3,3-difluoropropane-1-sulfonamide] | 2.3 nM | 24 nM | 14 nM | – | – | – |
| Cc1cc2cc(C(=O)c3cnn(-c4ccc(Oc5ccccc5F)c(C)c4C)c3N)[nH]c2cc1NS(C)(=O)=O [Example 5-1-213, N-[2-[5-amino-1-[4-(2-fluorophenoxy)-2,3-dimethylphenyl]pyrazole-4-carbonyl]-5-methyl-1H-indol-6-yl]methanesulfonamide] | – | – | – | 9.8 nM | 600 nM | 150 nM |
| Cc1cc(Oc2c(F)cccc2F)ncc1-n1ncc(C(=O)c2cc3cc(C(C)C)c(NS(=O)(=O)C4CCCCC4)cc3[nH]2)c1N [Example 5-1-304, N-[2-[5-amino-1-[6-(2,6-difluorophenoxy)-4-methylpyridin-3-yl]pyrazole-4-carbonyl]-5-propan-2-yl-1H-indol-6-yl] cyclohexanesulfonamide] | – | – | – | 32 nM | 1300 nM | 400 nM |
| Cc1cc2cc(C(=O)c3cnn(-c4ccc(Oc5ncccc5Cl)cc4Cl)c3N)[nH]c2cc1NS(=O)(=O)CCCF [Example 5-1-063, N-[2-[5-amino-1-[2-chloro-4-(3-chloropyridin-2-yl)oxyphenyl]pyrazole-4-carbonyl]-5-methyl-1H-indol-6-yl]-3-fluoropropane-1-sulfonamide] | – | – | – | 2.8 nM | 83 nM | 29 nM |
| Cc1cc(Oc2c(F)cccc2F)ncc1-n1ncc(C(=O)c2cc3cc(OCC(F)F)c(C4CCN(S(=O)(=O)C5CC5)CC4)cc3[nH]2)c1N [Example 4-17-024, [5-amino-1-[6-(2,6-difluorophenoxy)-4-methylpyridin-3-yl]pyrazol-4-yl]-[6-(1-cyclopropylsulfonylpiperidin-4-yl)-5-(2,2-difluoroethoxy)-1H-indol-2-yl]methanone] | 11 nM | 40 nM | 25 nM | – | – | – |
| Cc1cc(Oc2ccccc2F)cc(C)c1-n1ncc(C(=O)c2cc3cc(F)c(NS(C)(=O)=O)cc3[nH]2)c1N [Example 5-1-032, N-[2-[5-amino-1-[4-(2-fluorophenoxy)-2,6-dimethylphenyl]pyrazole-4-carbonyl]-5-fluoro-1H-indol-6-yl]methanesulfonamide] | – | – | – | 11 nM | 380 nM | 130 nM |
| Cc1cc(Oc2c(F)cccc2F)ncc1-n1ncc(C(=O)c2cc3cc(OC(F)F)c(N4CCN(S(C)(=O)=O)CC4)cc3[nH]2)c1N [Example 5-1-075, [5-amino-1-[6-(2,6-difluorophenoxy)-4-methylpyridin-3-yl]pyrazol-4-yl]-[5-(difluoromethoxy)-6-(4-methylsulfonylpiperazin-1-yl)-1H-indol-2-yl]methanone] | – | – | – | 2.8 nM | 73 nM | 18 nM |
| Cc1cccc(S(=O)(=O)Nc2cc3[nH]c(C(=O)c4cnn(-c5ccc(Oc6ccccc6F)cc5C)c4N)cc3cc2F)n1 [Example 5-1-532, N-[2-[5-amino-1-[4-(2-fluorophenoxy)-2-methylphenyl]pyrazole-4-carbonyl]-5-fluoro-1H-indol-6-yl]-6-methylpyridine-2-sulfonamide] | 1.6 nM | 290 nM | 38 nM | – | – | – |
| Cc1cc2cc(C(=O)c3cnn(-c4cnc(Oc5ccccc5Cl)cc4C)c3N)[nH]c2cc1NS(=O)(=O)CCCF [Example 4-2-074, N-[2-[5-amino-1-[6-(2-chlorophenoxy)-4-methylpyridin-3-yl]pyrazole-4-carbonyl]-5-methyl-1H-indol-6-yl]-3-fluoropropane-1-sulfonamide] | 2.7 nM | 71 nM | 27 nM | – | – | – |
| Cc1cc(Oc2c(F)cccc2F)ncc1-n1ncc(C(=O)c2cc3cc(OCC(F)F)c(N4CCC(N5CCOCC5)CC4)cc3[nH]2)c1N [Example 4-25-027, [5-amino-1-[6-(2,6-difluorophenoxy)-4-methylpyridin-3-yl]pyrazol-4-yl]-[5-(2,2-difluoroethoxy)-6-(4-morpholin-4-ylpiperidin-1-yl)-1H-indol-2-yl]methanone] | 0.8 nM | 23 nM | 2.1 nM | – | – | – |
| Cc1cc(-n2ncc(C(=O)c3cc4cc(OCC(F)F)c(NS(C)(=O)=O)cc4[nH]3)c2N)ccc1Oc1ccccc1F [Example 5-1-166, N-[2-[5-amino-1-[4-(2-fluorophenoxy)-3-methylphenyl]pyrazole-4-carbonyl]-5-(2,2-difluoroethoxy)-1H-indol-6-yl] methanesulfonamide] | – | – | – | 2 nM | 820 nM | 250 nM |

— patent US10479780B2, “Aminopyrazole derivatives” (Chugai Seiyaku Kabushiki Kaisha, priority 2015, dated 2019)
